Test results reported in US20250304623A1, “PEPTIDES FOR INTRACELLULAR DELIVERY” (UNIVERSIDADE DE SANTIAGO DE COMPOSTELA, priority 2022, published 2025).
*: point of attachment. NHNH2 = NN*

How the values were obtained:
Type in all cases: cell-based
ARPE19 cells = assay: RLuc pDNA delivery, robotic library screening, ARPE19
HepG2 cells = assay: RLuc pDNA delivery, robotic library screening, HepG2; conditions: Oleyl
Description: (§1) Cells were seeded in a 96 well plate the day before the experiment at a concentration of 60,000 cell/mL (100 μL/w) in DMEM+10% FBS+1% Gln-Abt. For robotic library screening, the delivery of pDNA encoding for the expression of Renilla luciferase gene (RLuc, pRL-CMV (Promega, #E2261)) in six different cell lines was performed. Amphihilic molecule stock solutions in DMSO were diluted with DMEM and freshly mixed with pDNA stock solutions in DMEM prior to transfection experiments, to afford several complexes at different amphiphile concentration (2-10 μM) while maintaining a constant final pDNA concentration of 2 ng/μL. The mixture was shaken for 30 min at room temperature before the addition to the cells. The cell medium was aspirated, and cells were washed twice with PBS. Finally, 50 μL of the complex's solution were added to the cells and incubated for 4 h. After the incubation, the medium was replaced by 100 μL of fresh DMEM supplemented with 10% FBS. 72 hours after transfection the DMEM was removed, cells were washed once with HBSS and 90 μL of HBSS were added to each well. Cells were incubated at 37° C. for 30 minutes. Then basal luminescence levels were read in a plate reader. Immediately, 10 μL of coelenterazine h in HBSS were added to each well (5 μM final concentration) and cells were incubated at 37° C. for 10 minutes. Finally, the total luminescence measurement of the plates was performed. Amphiphile transfection efficiency was compared and normalized to Lipofectamine® 2000 efficiency (value of 1 in Tables 1-5 and 7; bold numbers). All experiments were done in triplicate.
(§2) Tables 1-7: RLuc (pDNA) or EGFP (mRNA) expression levels were normalized to Lipofectamine reagents (value=1) and expressed as fold-times signal increase. In the case of siRNA, the siRNA treated cells fluorescence was compared with siMOCK control fluorescence, while Cas9-RNP mediated knockout was measured against the fluorescence of untreated cells. In both siRNA and Cas9-RNP, values are expressed as % fluorescence reduction. Amphiphile concentration was 5 μM in all cases. All experiments were performed in triplicate.
(§3) Tables 8-13 show the mean (triplicates) luminescent intensity (RLU) measured after the transfection of RLuc pDNA by different amphiphiles at different concentrations in a variety of cell lines. Background luminescence values, accounted by untransfected control cells, were subtracted for processing.

Hek293 cells = assay: RLuc pDNA delivery, robotic library screening, Hek293
A549 cells = assay: RLuc pDNA delivery, robotic library screening, A549
Description: as §1, §2, §3

HCT116 cells = assay: RLuc pDNA delivery, robotic library screening, HCT116
Hela cells = assay: RLuc pDNA delivery, robotic library screening, HeLa; conditions: Hela
Description: as §1, with “Amphihilic molecule stock solutions in DMSO were diluted with DMEM and freshly mixed with pDNA stock solutions in DMEM prior to transfection experiments, to afford several complexes at different amphiphile concentration (2-10 μM) while maintaining a constant final pDNA concentration of 2 ng/μL.” left out
as §2, §3

Ac-RK*RRK*K*R-NH2 (Ac-RK(NHNH2)RRK(NHNH2)K(NHNH2)R-NH2; not fully specified; printed as Ac-RK*RRK*K*R-NH2; also: K*2,K*5,K*6: native or modified lysine (ε-amide to a linker)) [7.3(L-R)]
mean luminescent intensity (RLuc pDNA) (ARPE19 cells; Myristoleyl, 5 μM): 522 RLU | mean luminescent intensity (RLuc pDNA) (ARPE19 cells; Myristoleyl, 10 μM): 20 RLU | mean luminescent intensity (RLuc pDNA) (ARPE19 cells; Myristoleyl, 15 μM): 56 RLU | mean luminescent intensity (RLuc pDNA) (ARPE19 cells; Palmitoleyl, 5 μM): 2987 RLU | mean luminescent intensity (RLuc pDNA) (ARPE19 cells; Petroselinyl, 5 μM): 2177 RLU | mean luminescent intensity (RLuc pDNA) (HepG2 cells; 5 μM): 1696 RLU | mean luminescent intensity (RLuc pDNA) (HepG2 cells; 10 μM): 22303 RLU | mean luminescent intensity (RLuc pDNA) (HepG2 cells; 15 μM): 6498 RLU | mean luminescent intensity (RLuc pDNA) (Hek293 cells; Myristoleyl, 5 μM): 46216 RLU | mean luminescent intensity (RLuc pDNA) (Hek293 cells; Myristoleyl, 10 μM): 51837 RLU | mean luminescent intensity (RLuc pDNA) (Hek293 cells; Myristoleyl, 15 μM): 10351 RLU | mean luminescent intensity (RLuc pDNA) (Hek293 cells; Palmitoleyl, 5 μM): 73751 RLU | mean luminescent intensity (RLuc pDNA) (Hek293 cells; Palmitoleyl, 10 μM): 115755 RLU | mean luminescent intensity (RLuc pDNA) (Hek293 cells; Palmitoleyl, 15 μM): 29282 RLU | mean luminescent intensity (RLuc pDNA) (Hek293 cells; Petroselinyl, 5 μM): 9983 RLU | mean luminescent intensity (RLuc pDNA) (Hek293 cells; Petroselinyl, 10 μM): 59396 RLU | mean luminescent intensity (RLuc pDNA) (Hek293 cells; Petroselinyl, 15 μM): 8037 RLU | mean luminescent intensity (RLuc pDNA) (A549 cells; Oleyl, 5 μM): 13651 RLU | mean luminescent intensity (RLuc pDNA) (A549 cells; Palmitoleyl, 5 μM): 5366 RLU | mean luminescent intensity (RLuc pDNA) (A549 cells; Palmitoleyl, 15 μM): 12440 RLU | mean luminescent intensity (RLuc pDNA) (A549 cells; Petroselinyl, 15 μM): 7194 RLU | mean luminescent intensity (RLuc pDNA) (HCT116 cells; Myristoleyl, 5 μM): 7939 RLU | mean luminescent intensity (RLuc pDNA) (HCT116 cells; Myristoleyl, 10 μM): −83 RLU | mean luminescent intensity (RLuc pDNA) (HCT116 cells; Myristoleyl, 15 μM): −41 RLU | mean luminescent intensity (RLuc pDNA) (HCT116 cells; Palmitoleyl, 5 μM): 22225 RLU | mean luminescent intensity (RLuc pDNA) (HCT116 cells; Palmitoleyl, 10 μM): 41280 RLU | mean luminescent intensity (RLuc pDNA) (HCT116 cells; Petroselinyl, 5 μM): 2832 RLU | mean luminescent intensity (RLuc pDNA) (HCT116 cells; Petroselinyl, 10 μM): 9686 RLU | mean luminescent intensity (RLuc pDNA) (Hela cells; Myristoleyl, 5 μM): 3647 RLU | mean luminescent intensity (RLuc pDNA) (Hela cells; Myristoleyl, 10 μM): 2076 RLU | mean luminescent intensity (RLuc pDNA) (Hela cells; Myristoleyl, 15 μM): 22 RLU | mean luminescent intensity (RLuc pDNA) (Hela cells; Palmitoleyl, 5 μM): 62538 RLU | mean luminescent intensity (RLuc pDNA) (Hela cells; Palmitoleyl, 10 μM): 25113 RLU | mean luminescent intensity (RLuc pDNA) (Hela cells; Palmitoleyl, 15 μM): 3405 RLU | mean luminescent intensity (RLuc pDNA) (Hela cells; Petroselinyl, 5 μM): 4972 RLU
